Reference: EP3964196A1, “USE OF CHL[…] CETYLPYRIDINIUM CHLORIDE AS ANTIVIRAL AGENTS” (Ferton Holding S.A., priority 2020, dated 2022)

System: SARS-CoV-2
Experiment: Virucidal efficacy: 30sec incubation of SARS-CoV-2 with mouth rinsing solution, then standard plaque assay on Vero E6 cells
Assay type: cell-based, Severe acute respiratory syndrome coronavirus 2
Settings: 1x10^6 pfu SARS-CoV-2 incubated with solution (2-fold diluted) for 30sec at 37°C; Dilution 4 analyzed on Vero E6; compared to negative control
Method: A mouth rinsing solution according to the invention (see example 1 below) and some of their individual active components were tested regarding their virucidal efficacy against the novel coronavirus SARS-CoV-2, in vitro. To evaluate if this procedure is sufficient to successfully inactivate SARS-CoV-2, in the following study 1x10^6 infectious SARS-CoV-2 particles were incubated with the solutions (dilution factor: 2) for 30sec. After a serial dilution the samples were submitted to a standard plaque assay to check for the presence of infectious virus particles post incubation with the different solutions.
Test solutions: • Example 1 (0.1% Chlorhexidine (CHX), 0.05% CPC, PEG-40 hydrogenated castor oil), according to the invention Comparative examples: • 0.1% CHX plus 0.05% CPC • 0.05% CPC • 0.1% CHX • 1.5% H2O2 • 0.5% H2O2 […]
The samples were mixed briefly by vortexing and incubated at 37°C for 30sec. […] Dilution 4 of each sample was analyzed in technical duplicates in a plaque assay. […]
The virucidal activity of example 1 and some of their individual components were investigated against the novel corona virus SARS-CoV-2 by a 30sec incubation of 1x10^6 pfu SARS-CoV-2 with the test substances, followed by a standard plaque assay. […] Medium", positive control, in column 3, each analyzed in technical duplicates.

SMILES | infectious SARS-CoV-2 particles / number of plaques in the plaque assay
[H]/N=C(\N/C(=N/[H])NCCCCCCNC(=N)NC(=N)Nc1ccc(Cl)cc1)Nc1ccc(Cl)cc1 [0.1% CHX, Chlorhexidine] | no reduction compared to the negative control
OO [1.5% H2O2, Hydrogen peroxide] | no reduction compared to the negative control
